Measured values published in publication PMC5547389, “Structure-activity relationships and molecular docking studies of chromene and chromene based azo chromophores: A novel series of potent antimicrobial and anticancer agents” (EXCLI Journal, 2017).

Key:
[1] = system: Aspergillus fumigatus (RCMB 02568); test: Well diffusion assay (inhibition zone); assay type: cell-based; conditions: RCMB02568, 5 mg/mL in DMSO, fungi, read-out: Inhibition Zone (IZ) diameter, A.F
Outline: (§1)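 Agar well diffusion with 10 mm wells, nutrient agar for bacteria and malt extract agar for fungi. Plates were incubated 24-48 h at 37 °C for bacteria or 28 °C for fungi. Inhibition zone diameters were measured in mm, in triplicate.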

[2] = system: Geotricum candidum (RCMB 05097); test: Well diffusion assay (inhibition zone); assay type: cell-based; conditions: 5 mg/mL in DMSO; fungi; read-out: Inhibition Zone (IZ) diameter, G.C
Outline: as §1

[3] = system: Streptococcus pneumoniae (RCMB 010010); test: Well diffusion assay (inhibition zone); assay type: cell-based; conditions: RCMB010010, 5 mg/mL in DMSO, Gm+ve, read-out: Inhibition Zone (IZ) diameter, S.P
Outline: as §1

[4] = system: Escherichia coli (RCMB 010052); test: Well diffusion assay (inhibition zone); assay type: cell-based; conditions: RCMB010052, 5 mg/mL in DMSO, Gm-ve, read-out: Inhibition Zone (IZ) diameter, E.C
Outline: as §1

[5] = system: Bacillus subtilis (RCMB 010067); test: Well diffusion assay (inhibition zone); assay type: cell-based; conditions: RCMB010067, 5 mg/mL in DMSO, Gm+ve, read-out: Inhibition Zone (IZ) diameter, B.S
Outline: as §1

[6] = system: Syncephalastrum racemosum (RCMB 05922); test: Well diffusion assay (inhibition zone); assay type: cell-based; conditions: RCMB05922, 5 mg/mL in DMSO, fungi, read-out: Inhibition Zone (IZ) diameter, S.R
Outline: as §1

[7] = molecular target: T1, DNA gyrase from Escherichia coli (Escherichia coli, UniProt P0AES4+P0AES6); test: In vitro inhibitory activity screening of E. coli DNA gyrase; assay type: biochemical; conditions: for remaining activity at 10 µM: 10 μM of compound, read-out: DNA Gyrase Residual activity RA (10 μM); for remaining activity at 100 µM: read-out: DNA Gyrase Residual activity RA (100 μM)
T1 construct: purchased Inspiral is Ltd (Norwich, United Kingdom)
Procedure: Gyrase B and ParE monomers have only modest ATPase activity which is enhanced in the case of the holo enzymes and stimulated further by DNA. The phosphate released following conversion of ATP into ADP can be detected by the addition of malachite green solution and measured by monitoring the increase in absorbance at 600 nm. Topoisomerases were purchased from Inspiral is Ltd (Norwich, United Kingdom). For the Escherichia coli DNA gyrase ATPase assay, the final assay composition was 10 nM DNA gyrase (a complex of two GyrA and two GyrB subunits, the A2B2 complex) 3 mM Tris, pH 7.5, 24 mM KCl, 2 mM MgCl2, 6.5 % (w/v) glycerol, 0.01 mg/ml bovine serum albumin (BSA), 2 mM DTT (dithiothreitol), 9 mM ATP, and 5 % DMSO solution containing the compounds). For E. coli topoisomerase IV ATPase assay, the final assay composition was 10 nM topoisomerase IV (a complex consisting of two ParC and two ParE subunits), 40 mM HEPES-KOH, pH 7.6, 100 mM Potassium Glutamate, 25 mM Magnesium Acetate, […] single-stranded DNA, 0.2 mg/ml BSA, 10 mM DTT, 0.5 mM ATP, and 5 % DMSO solution containing the compounds. The reactions were started by the addition of the ATP, and the reaction mixtures were allowed to incubate at 30 °C for 60 mins. Reactions were stopped by adding Malachite green solution (0.034 % malachite green, 10 mM ammonium molybdate, 1M HCl, 3.4 % Ethanol, 0.01 % Tween 20). Color was allowed to develop for 5 min, and the absorbance at 600 nm was measured spectrophotometrically. The half-maximum (50 %) inhibitory concentration (IC50) values were determined from the absorbance readings using no-compound and no-enzyme controls. The values reported are the averages of at least four independent experiments.
Based upon the antimicrobial screening data, target compounds 4a, 7c, and 13b were evaluated against DNA gyrase from Escherichia coli in the DNA supercoiling assay for studying their mechanism. The results are presented in Table 5(Tab. 5) as residual activities (RA is the percentage activity of the enzyme in the presence of 10 μM and 100 μM of compound).

T1 sequence (P0AES4 whole entry, one chain of several): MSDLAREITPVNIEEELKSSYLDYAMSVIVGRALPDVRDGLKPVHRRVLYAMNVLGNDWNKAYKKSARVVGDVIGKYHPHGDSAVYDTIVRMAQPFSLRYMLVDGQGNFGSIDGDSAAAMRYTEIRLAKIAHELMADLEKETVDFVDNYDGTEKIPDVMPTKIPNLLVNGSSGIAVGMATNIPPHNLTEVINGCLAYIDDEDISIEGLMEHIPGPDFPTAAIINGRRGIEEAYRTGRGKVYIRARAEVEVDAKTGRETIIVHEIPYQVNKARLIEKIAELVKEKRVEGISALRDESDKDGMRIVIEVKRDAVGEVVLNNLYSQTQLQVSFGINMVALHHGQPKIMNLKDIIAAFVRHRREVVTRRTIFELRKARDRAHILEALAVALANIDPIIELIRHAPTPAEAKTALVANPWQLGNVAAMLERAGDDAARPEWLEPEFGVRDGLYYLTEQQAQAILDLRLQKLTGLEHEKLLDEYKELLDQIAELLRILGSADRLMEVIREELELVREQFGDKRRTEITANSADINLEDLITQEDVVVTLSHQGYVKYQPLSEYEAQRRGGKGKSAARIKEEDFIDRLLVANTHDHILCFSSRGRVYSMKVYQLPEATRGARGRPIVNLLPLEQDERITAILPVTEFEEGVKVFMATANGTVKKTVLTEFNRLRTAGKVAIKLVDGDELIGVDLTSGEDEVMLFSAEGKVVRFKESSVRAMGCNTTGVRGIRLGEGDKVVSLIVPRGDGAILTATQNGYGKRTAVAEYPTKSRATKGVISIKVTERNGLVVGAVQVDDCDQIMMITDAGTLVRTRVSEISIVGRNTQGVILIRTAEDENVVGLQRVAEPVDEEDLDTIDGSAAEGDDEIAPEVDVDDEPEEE

Structure (SMILES) | zone of inhibition at 5000 µg/mL [1] | zone of inhibition at 5000 µg/mL [2] | zone of inhibition at 5000 µg/mL [3] | zone of inhibition at 5000 µg/mL [4] | zone of inhibition at 5000 µg/mL [5] | zone of inhibition at 5000 µg/mL [6] | remaining activity at 10 µM [7] | remaining activity at 100 µM [7]
N#CC1=C(N)Oc2c(N)cc3ccccc3c2C1c1ccc(Cl)cc1 (centres unmarked) [4b, 3,5-diamino-1-(4-chlorophenyl)-1H-benzo[f]chromene-2-carbonitrile] | 24.3 mm | 26.9 mm | 22.6 mm | 18.3 mm | 33.7 mm | 17.6 mm | – | –
N#CC1=C(N)Oc2c(ccc3c(N)cccc23)C1c1ccc(F)cc1 (centres unmarked) [7c] | 18.2 mm | 20.1 mm | 17.8 mm | 18.6 mm | 21.3 mm | 16.2 mm | 125% | 128%
N#CC1=C(N)Oc2c(N)cc3ccccc3c2C1c1ccc(F)cc1 (centres unmarked) [4a, 3,5-diamino-1-(4-fluorophenyl)-1H-benzo[f]chromene-2-carbonitrile] | 12.3 mm | – | 16.9 mm | 11.9 mm | 18.2 mm | 12.6 mm | 117% | 114%
COc1ccc(N=Nc2cc3c(cc2O)OC(N)=C(C#N)C3c2ccc(F)cc2)cc1 (centres unmarked) [13b, 2-Amino-4-(4-fluoro-phenyl)-7-hydroxy-6-(4-methoxy-phenylazo)-4H-chromene-3-carbonitrile] | 16.3 mm | 17.3 mm | 17.5 mm | 17.8 mm | 19.7 mm | 15.2 mm | 137% | 127%
Cc1ccc(C2C(C#N)=C(N)Oc3c(N)cc4ccccc4c32)cc1 (centres unmarked) [4c, 3,5-diamino-1-(p-tolyl)-1H-benzo[f]chromene-2-carbonitrile] | 20.2 mm | 18.6 mm | 18.2 mm | 15.3 mm | 19.4 mm | 16.9 mm | – | –
